Source: US12516292B2, “Methods of producing modified natural killer cells and methods of use” (The United States of America, as represented by the …, priority 2016, dated 2026)

System: human NK cells from PBMC
Test: Fold expansion and overall yield of transduced NK cells in culture
Format: cell-based
Settings: BX795 (1.5 μM) during transduction combined with pre-stimulation with SMI-LCL feeder cells (FIG. 28A, 28B)

O=C(NCCCNc1nc(Nc2cccc(NC(=O)N3CCCC3)c2)ncc1I)c1cccs1 [BX795]
subsequent proliferation of lentiviral transduced ex-vivo expanded human NK cells: increased subsequent proliferation
